Legend:
Assay in all cases: relative viability (nuclei count vs DMSO), 5 days (fraction); higher = more cells survive
[1] = compound: CC(C)N(CCCNC(=O)Nc1ccc(C(C)(C)C)cc1)C[C@H]1O[C@@H](n2ccc3c(N)ncnc32)[C@H](O)[C@@H]1O + CC(=O)c1c(C)c2cnc(Nc3ccc(N4CCNCC4)cn3)nc2n(C2CCCC2)c1=O [Palbociclib] (partner 0.5 µM)
Outline: (§1)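 Each reported value is a median over duplicate plates. It expresses relative viability: treated-well nuclei count divided by vehicle-well nuclei count. Lung cancer cell lines in 1536-well plates were dosed by pin tool a day after seeding, alone with one drug or with a fixed anchor-drug dose plus five library-drug doses (not always all listed) in √10 steps, and nuclei were counted after 5 days.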

[2] = compound: CC(C)N(CCCNC(=O)Nc1ccc(C(C)(C)C)cc1)C[C@H]1O[C@@H](n2ccc3c(N)ncnc32)[C@H](O)[C@@H]1O + N=C(N)NC(=N)NCCc1ccccc1 [Phenformin] (partner 250 µM)
Outline: as §1

[3] = compound: CC(C)N(CCCNC(=O)Nc1ccc(C(C)(C)C)cc1)C[C@H]1O[C@@H](n2ccc3c(N)ncnc32)[C@H](O)[C@@H]1O + Cc1cc(Nc2cc(N3CCN(C)CC3)nc(Sc3ccc(NC(=O)C4CC4)cc3)n2)n[nH]1 [Tozasertib] (partner 0.1 µM)
Outline: as §1

[4] = compound: CC(C)N(CCCNC(=O)Nc1ccc(C(C)(C)C)cc1)C[C@H]1O[C@@H](n2ccc3c(N)ncnc32)[C@H](O)[C@@H]1O + Cc1nc(NC(=O)N2CCC[C@H]2C(N)=O)sc1-c1ccnc(C(C)(C)C(F)(F)F)c1 [Alpelisib] (partner 2 µM)
Outline: as §1

Cell Line	relative viability ([1]; first compound 0.08 µM)	relative viability ([1]; first compound 0.253 µM)	relative viability ([1]; first compound 2.53 µM)	relative viability ([1]; first compound 8 µM)	relative viability ([2]; first compound 0.08 µM)	relative viability ([2]; first compound 0.253 µM)	relative viability ([2]; first compound 0.8 µM)	relative viability ([2]; first compound 2.53 µM)	relative viability ([2]; first compound 8 µM)	relative viability ([3]; first compound 0.08 µM)	relative viability ([3]; first compound 0.253 µM)	relative viability ([3]; first compound 0.8 µM)	relative viability ([3]; first compound 2.53 µM)	relative viability ([3]; first compound 8 µM)	relative viability ([4]; first compound 0.08 µM)	relative viability ([4]; first compound 0.253 µM)	relative viability ([4]; first compound 0.8 µM)	relative viability ([4]; first compound 2.53 µM)	relative viability ([4]; first compound 8 µM)	relative viability ([1]; first compound 0.8 µM)
201T	0.338	0.352	0.328	0.357	0.474	0.421	0.43	0.421	0.401	0.871	0.896	0.974	0.898	0.902	1	1.03	1.02	0.98	0.962	
A549					0.183	0.142	0.164	0.152	0.105						0.68	0.848	0.948	0.723	0.659	
A-427	0.525	0.546	0.578	0.515	0.368	0.303	0.335	0.364	0.315	0.2	0.208	0.193	0.204	0.206	1.08	1.03	1.11	1.1	1.18	0.556
ABC-1	0.665	0.868	0.763	0.655	0.235	0.246		0.266	0.233	0.183	0.174		0.183	0.178	0.989	1.2		1.12	1.07	
BEN	0.446	0.509	0.503	0.445	0.254	0.258	0.265	0.246	0.287	0.49	0.642	0.485	0.532	0.452	0.909	0.93	0.953	0.913	0.989	0.453
CAL-12T	0.418	0.341	0.445	0.38	0.539	0.597	0.585	0.56	0.489	0.326	0.315	0.309	0.293	0.29	1.02	1.32	1.26	1	1	0.488
COR-L23	0.302	0.296	0.34	0.304	0.467	0.418	0.434	0.426	0.418	0.208	0.195	0.256	0.23	0.201	0.74	0.765	0.791	0.955	0.759	0.265
COR-L 105	0.402	0.397	0.434	0.378	0.393	0.503	0.583	0.394	0.473	0.357	0.357	0.331	0.336	0.316	0.733	1.08	1.06	1.02	0.974	0.414
Calu-6															0.987	1.01	1.02	1.09	0.984	
ChaGo-K-1	0.887	0.96	0.928	0.95	0.494	0.47	0.427	0.458	0.46	0.242	0.245	0.222	0.209	0.23						0.959
EBC-1															0.749	0.825	0.739	0.848	0.704	
IA-LM															0.667	0.759	0.787	0.701	0.723	
NCI-H522	0.85	1.05	1.09	1.4	0.606	0.673	0.677	0.664	0.56	0.538	0.553	0.542	0.588	0.615						1.09
NCI-H596					0.819		0.626	0.781	0.713	0.905		0.744	0.97	0.897	0.567	0.42	0.54	0.434	0.482	
NCI-H1299															1.03	1.03	1.07	1.02	1.04	
NCI-H1563					0.67	0.627	0.626	0.666	0.697						0.991	0.907	1.09	0.973	0.991	
NCI-H1648	0.268	0.315	0.287	0.323						0.445	0.425	0.534	0.387	0.495						0.335
NCI-H1650	0.38	0.431	0.335	0.396	0.311	0.424		0.429	0.473	0.483	0.358		0.398	0.439						0.131
NCI-H1703															0.309	0.322	0.304	0.439	0.318	
NCI-H1792	0.631	0.671	0.639	0.643	0.374		0.223	0.418	0.472						0.671	0.497	0.688	0.696	0.668	0.773
NCI-H2342	0.556	0.533	0.551	0.549	0.574	0.553	0.499	0.532	0.493	0.57	0.559	0.415	0.472	0.56						0.481
SW 900	0.564	0.521	0.543	0.473	0.719	0.634		0.541	0.486	0.683	0.696		0.543	0.438						

Reference: the supplement of paper PMC10307832
